The values below come from ChEMBL document CHEMBL4706685 (J Med Chem, 2021).

One may read the logP as a log measure of how a compound divides between an organic and an aqueous phase. One may read the solubility as the concentration that dissolves in the medium under given conditions. A low value points to little dissolved substance.

Data set [1] concerns CYP1A2. Briefly: Induction of CYP1A2 mRNA expression in human hepatocytes up to 30 uM relative to positive control. The class given is ADME, cell-based, Hepatocyte. The conditions noted are these: read-out: Activity.
Data set [2] has as its system CYP2B6. Put plainly: Induction of CYP2B6 mRNA expression in human hepatocytes up to 30 uM relative to positive control. It counts as ADME, cell-based, Hepatocyte. The settings on record: read-out: Activity.
Data set [3] can be described thus: Terminal half life in human at 8 to 24 mg. It counts as ADME. The settings on record: dose 8-24 mg, read-out: beta t1/2 (converted).
A short description of data set [4]: Lipophilicity, logP of compound by HPLC analysis. It counts as physicochemical.
Data set [5] relates to CYP3A4. Put plainly: Induction of CYP3A4 mRNA expression in human hepatocytes up to 30 uM relative to positive control. The class given is ADME, cell-based, Hepatocyte. The settings on record: read-out: Activity.
The nature of data set [6]: Drug excretion in male Sprague-Dawley rat urine/feces assessed as drug recovery at 3 mg/kg, po administered as single dose using [14C]-EC5026 measured through 168 hrs postdose. The settings on record: in vivo.
A short description of data set [7]: Drug excretion in female Sprague-Dawley rat urine/feces assessed as drug recovery at […], po administered as single dose using [14C]-EC5026 measured through 168 hrs postdose. The conditions noted are these: in vivo.
Data set [8] in a line: Solubility in 0.1M sodium phosphate buffer at pH 7.4. It counts as physicochemical.

Values after ≈ are worked out from the molar mass of the structure shown.

Take `CC[C@H](C)C(=O)N1CCC(NC(=O)Nc2ccc(OC(F)(F)F)c(F)c2)CC1`: the Emax in data set [1], in data set [2] and in data set [5] was less than 20% each time. Also, the half-life in data set [3] is 42 h. Also, the logP in data set [4] (read-out: logP) came out at 6. The Drug recovery in data set [6] and in data set [7] was 96.5% each time.
As to `CC[C@H](C)C(=O)N1CCC(CC(=O)Nc2ccc(OC(F)(F)F)c(F)c2)CC1`, the logP in data set [4] came out at 3.2. Further, the solubility in data set [8] amounted to 404.41 µg/mL (≈ 1000 µM).
As for `O=C(Nc1ccc(OC(F)(F)F)c(F)c1)NC1CCN(C(=O)C2CC2)CC1`, the logP in data set [4] (read-out: logP) came to 4.2.
